Assay results taken from patent US20260028326A1, “COMPOUND BASED ON ISOINDOLINE-SUBSTITUTED GLUTARIMIDE BACKBONE AND USE THEREOF” (GLUETACS THERAPEUTICS (SHANGHAI) CO., LTD., priority 2022, published 2026).

Biological target: human Cereblon WT GST-tagged protein (Homo sapiens (Human), UniProt Q96SW2)
Test: CRBN-binding affinity, HTRF (CEREBLON BINDING kit)
Description: The CEREBLON BINDING kits (specification: 10,000 tests; product number: Catalog #64BDCRBNPEH; CISBIO company) was used to determine the CRBN binding ability of the compounds to be tested through a HTRF method (homogeneous time-resolved fluorescence). The specific methods are as follows: • 1. […] Then, 2.5 μL of human Cereblon WT GST-tagged protein solution was added to each well. Finally, 5 μL of the thoroughly mixed Thalidomide-Re reagent and GST Eu antibody working solution were added to each of the aforementioned wells. […] The blank control wells were sequentially added with 2.5 μL of diluent #9 (1×) solution, 2.5 μL of PROTAC binding buffer, and 5 μL of thoroughly mixed Thalidomide-Re reagent and GST Eu antibody working solution. • 4.
The corresponding CRBN binding inhibition rate was calculated using the following method: […]

Sequence of human Cereblon WT GST-tagged protein (Q96SW2 whole entry): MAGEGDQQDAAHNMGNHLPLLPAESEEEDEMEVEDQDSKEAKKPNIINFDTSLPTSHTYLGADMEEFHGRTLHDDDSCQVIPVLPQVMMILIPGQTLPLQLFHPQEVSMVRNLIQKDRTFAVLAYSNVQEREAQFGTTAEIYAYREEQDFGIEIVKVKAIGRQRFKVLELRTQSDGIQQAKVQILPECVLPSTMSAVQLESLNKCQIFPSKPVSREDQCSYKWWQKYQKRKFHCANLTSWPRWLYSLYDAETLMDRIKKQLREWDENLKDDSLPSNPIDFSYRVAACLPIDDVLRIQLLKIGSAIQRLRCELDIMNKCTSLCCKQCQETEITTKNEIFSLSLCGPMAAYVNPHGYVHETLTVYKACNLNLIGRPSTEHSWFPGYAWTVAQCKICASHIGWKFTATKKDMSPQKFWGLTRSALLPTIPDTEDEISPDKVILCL

| IC50 [nM] | SMILES |
| --- | --- |
| 440 | CC1(C)CCC(CN2CC3CC2CN3C(=O)c2ccc3c(c2)CN(C2CCC(=O)NC2=O)C3=O)=C(c2ccc(F)cc2)C1 (stereo not shown) [GT-05452, 3-(5-(5-((4′-fluoro-5,5-dimethyl-3,4,5,6-tetrahydro-[1,1′-biphenyl]-2-yl)methyl)-2,5-diazabicyclo[2.2.1]heptane-2-carbonyl)-1-oxoisoindolin-2-yl)piperidine-2,6-dione] |
| 1240 | CC1(C)CCC(CN2CCCN(C(=O)c3ccc4c(c3)CN(C3CCC(=O)NC3=O)C4=O)CC2)=C(c2ccc(Cl)cc2)C1 (stereo not shown) [GT-05453, 3-(5-(4-((4′-chloro-5,5-dimethyl-3,4,5,6-tetrahydro-[1,1′-biphenyl]-2-yl)methyl)-1,4-diazepane-1-carbonyl)-1-oxoisoindolin-2-yl)piperidine-2,6-dione] |
| 1630 | CC1(C)CCC(CN2CC3CCC2CN3Cc2cc3c(cc2F)C(=O)N(C2CCC(=O)NC2=O)C3)=C(c2ccc(Cl)cc2)C1 (stereo not shown) [GT-05460, 3-(5-((5-((4′-chloro-5,5-dimethyl-3,4,5,6-tetrahydro-[1,1′-biphenyl]-2-yl)methyl)-2,5-diazabicyclo[2.2.2]octan-2-yl)methyl)-6-fluoro-1-oxoisoindolin-2-yl)piperidine-2,6-dione] |
| 1580 | CC1(C)CCC(CN2CC3CCC2CN3Cc2cccc3c2CN(C2CCC(=O)NC2=O)C3=O)=C(c2ccc(Cl)cc2)C1 (stereo not shown) [GT-05461, 3-(4-((5-((4′-chloro-5,5-dimethyl-3,4,5,6-tetrahydro-[1,1′-biphenyl]-2-yl)methyl)-2,5-diazabicyclo[2.2.2]octan-2-yl)methyl)-1-oxoisoindolin-2-yl)piperidine-2,6-dione] |
| 1900 | CC1(C)CCC(CN2CC3CCC2CN3Cc2cccc3c2C(=O)N(C2CCC(=O)NC2=O)C3)=C(c2ccc(Cl)cc2)C1 (stereo not shown) [GT-05462, 3-(7-((5-((4′-chloro-5,5-dimethyl-3,4,5,6-tetrahydro-[1,1′-biphenyl]-2-yl)methyl)-2,5-diazabicyclo[2.2.2]octan-2-yl)methyl)-1-oxoisoindolin-2-yl)piperidine-2,6-dione] |

Continued, compound first:

| SMILES | IC50 [nM] |
| --- | --- |
| O=C1CCC(N2Cc3cc(C(=O)N4CCN(C(=O)C5=C(c6ccc(F)cc6)CCCC5)CC4)ccc3C2=O)C(=O)N1 (stereo not shown) [GT-05448, 3-(5-(4-(4′-fluoro-3,4,5,6-tetrahydro-[1,1′-biphenyl]-2-carbonyl)piperazine-1-carbonyl)-1-oxoisoindolin-2-yl)piperidine-2,6-dione] | 1390 |
| CC1(C)CCC(CN2CC3CCC(C2)N3C(=O)c2ccc3c(c2)CN(C2CCC(=O)NC2=O)C3=O)=C(c2ccc(F)cc2)C1 (stereo not shown) [GT-05451, 3-(5-(3-((4′-fluoro-5,5-dimethyl-3,4,5,6-tetrahydro-[1,1′-biphenyl]-2-yl)methyl)-3,8-diazabicyclo[3.2.1]octane-8-carbonyl)-1-oxoisoindolin-2-yl)piperidine-2,6-dione] | 1160 |
| CC1(C)CCC(CN2C3CC2CN(C(=O)c2ccc4c(c2)CN(C2CCC(=O)NC2=O)C4=O)C3)=C(c2ccc(Cl)cc2)C1 (stereo not shown) [GT-05457, 3-(5-(6-((4′-chloro-5,5-dimethyl-3,4,5,6-tetrahydro-[1,1′-biphenyl]-2-yl)methyl)-3,6-diazabicyclo[3.1.1]heptane-3-carbonyl)-1-oxoisoindolin-2-yl)piperidine-2,6-dione] | 1260 |
| CC1(C)CCC(CN2CC3CCC(C2)N3C(=O)c2ccc3c(c2)CN(C2CCC(=O)NC2=O)C3=O)=C(c2ccc(Cl)cc2)C1 (stereo not shown) [GT-05458, 3-(5-(3-((4′-chloro-5,5-dimethyl-3,4,5,6-tetrahydro-[1,1′-biphenyl]-2-yl)methyl)-3,8-diazabicyclo[3.2.1]octane-8-carbonyl)-1-oxoisoindolin-2-yl)piperidine-2,6-dione] | 1410 |
| CC1(C)CCC(CN2CC3CCC(C2)N3Cc2ccc3c(c2)C(=O)N(C2CCC(=O)NC2=O)C3)=C(c2ccc(Cl)cc2)C1 (stereo not shown) [GT-05459, 3-(6-((3-((4′-chloro-5,5-dimethyl-3,4,5,6-tetrahydro-[1,1′-biphenyl]-2-yl)methyl)-3,8-diazabicyclo[3.2.1]octan-8-yl)methyl)-1-oxoisoindolin-2-yl)piperidine-2,6-dione] | 1120 |
